# Laboratory results reported in patent publication US9517265B2, “Methods for the prevention and/or treatment of memory impairment” (The Governing Council of the University of Toronto, priority 2010, dated 2016).
# Entries after “also recorded” stand apart in the source; their conditions may differ. Read-outs that look alike come from different tables or passages of the source.
# Columns and labels:
# [1] = Tail-clamp withdrawal assay (MAC of isoflurane) and recovery of righting reflex; format: in vivo, mice; conditions: for time to self-right after the immobilizing dose of isoflurane: L-655,708 or vehicle pretreatment, n=9; for immobilizing dose (MAC value) of isoflurane: tail-clamp, mice pretreated with L-655,708 0.7 mg/kg s.c. (row L-655,708) or vehicle (row isoflurane), n=17
# Experimental: The MAC value was calculated as the mean value of these two concentrations.
# [2] = cited from earlier work
# α5GABAA receptors [3] = target: T1, α5GABAA receptors (Mus musculus, UniProt P22723+Q8BHJ7); conditions: for memory performance of Gabra5−/− mice (in words) / effect of the anesthetic on recognition memory, wild-type mice (in words): 24 h after anesthesia
# T1 sequence (Q8BHJ7 32-463 limits assumed): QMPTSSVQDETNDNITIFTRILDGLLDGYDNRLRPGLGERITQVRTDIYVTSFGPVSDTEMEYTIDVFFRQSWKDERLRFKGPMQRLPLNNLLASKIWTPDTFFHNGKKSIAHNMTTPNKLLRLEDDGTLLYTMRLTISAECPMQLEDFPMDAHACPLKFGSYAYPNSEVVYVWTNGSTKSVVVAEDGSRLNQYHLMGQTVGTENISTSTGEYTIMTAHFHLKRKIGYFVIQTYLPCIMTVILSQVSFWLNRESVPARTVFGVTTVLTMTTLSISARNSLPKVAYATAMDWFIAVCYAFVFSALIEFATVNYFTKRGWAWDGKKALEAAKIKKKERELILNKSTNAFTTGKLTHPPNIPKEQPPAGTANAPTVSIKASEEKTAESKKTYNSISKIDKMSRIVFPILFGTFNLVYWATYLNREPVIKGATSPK
# T1 sequence (P63080 26-473 partner): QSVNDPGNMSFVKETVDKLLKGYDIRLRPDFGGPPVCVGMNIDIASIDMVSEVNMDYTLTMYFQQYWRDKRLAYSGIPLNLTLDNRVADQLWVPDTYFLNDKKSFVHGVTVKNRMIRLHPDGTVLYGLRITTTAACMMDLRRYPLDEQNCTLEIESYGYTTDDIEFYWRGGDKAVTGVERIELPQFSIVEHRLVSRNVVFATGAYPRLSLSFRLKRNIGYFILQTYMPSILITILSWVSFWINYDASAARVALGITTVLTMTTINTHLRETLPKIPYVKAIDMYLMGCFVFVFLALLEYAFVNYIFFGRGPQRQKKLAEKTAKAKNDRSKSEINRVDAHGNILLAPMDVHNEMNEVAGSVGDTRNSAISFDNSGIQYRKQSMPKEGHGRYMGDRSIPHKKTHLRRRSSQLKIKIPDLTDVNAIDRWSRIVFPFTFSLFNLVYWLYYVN
# T1 sequence (P22723 39-474): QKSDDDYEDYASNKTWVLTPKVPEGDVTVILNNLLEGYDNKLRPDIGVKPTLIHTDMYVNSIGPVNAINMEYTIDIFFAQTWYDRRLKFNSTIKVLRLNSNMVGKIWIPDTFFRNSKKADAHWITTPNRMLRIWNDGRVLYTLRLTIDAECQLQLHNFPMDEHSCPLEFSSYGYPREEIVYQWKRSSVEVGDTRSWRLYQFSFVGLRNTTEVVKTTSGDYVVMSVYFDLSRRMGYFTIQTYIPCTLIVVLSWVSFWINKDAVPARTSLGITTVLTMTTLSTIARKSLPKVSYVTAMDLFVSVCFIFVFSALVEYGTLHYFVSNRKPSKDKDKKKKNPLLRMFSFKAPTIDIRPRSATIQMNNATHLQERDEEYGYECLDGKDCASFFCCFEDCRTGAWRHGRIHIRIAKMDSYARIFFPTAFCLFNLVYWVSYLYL
# α5GABAA receptors [4] = target: T1, α5GABAA receptors; assay: Fear conditioning (contextual and cued) after isoflurane anesthesia; format: in vivo, C57BL6/J mice; parameters: from tissue; host or cells: brain of living mice (behavioural tests); conditions: for effect on memory deficit after isoflurane (in words): L-655,708 given before isoflurane; for freezing score to context, short-term memory: tested 30 min after training; for freezing score to auditory tone, short-term memory: tested 90 min after conditioning; for freezing score to auditory tone, long-term memory / freezing score to context, long-term memory: tested 2 days after conditioning
# Experimental: To prevent hypothermia during anesthesia, the floor of the chamber was warmed with a heating blanket. […] The mouse was then either returned to its home cage and allowed to recover for 24 h (24-h groups) or taken to a holding cage in an adjacent room (1-h groups). For continuity and to ensure that the experimenter who performed the fear-conditioning studies was blinded to the treatment group, mice that were allowed to recover for 24 h were placed back in a heated for 45 min before the behavioral experiments. FIGS. 1A and 1B summarize the time course of the experimental procedures. In FIG. 1A, each stage of the experimental paradigm is represented by chronological boxes and cartoons. Relative time is indicated below the boxes (t=0, start of fear conditioning training). The duration of each stage is inset at the bottom left. […] Four groups of isoflurane-treated subjects were used (1 h recovery+L-655,708; 1 h recovery+vehicle; 24 h recovery+L-655,708; 24 h recovery+vehicle). Two oxygen-control group was used (1 h recovery+L-655,708; 1 h recovery+vehicle). 10 min prior to fear conditioning, subjects were examined in the elevated plus maze (EPM). Subjects were tested for short-term memory (STM) and long-term memory (LTM) of the context and tone.
# Testing of memory function was performed using two fear-conditioning paradigms. These tests study the ability of mice to learn and remember an association between an aversive stimulus (foot shock) and non-aversive or neutral stimuli (environmental context or an auditory cue). […] Each mouse was introduced to the fear conditioning chamber (50 cm wide×15 cm deep×15 cm high, Process Control Fear Conditioning Monitor GmbH 303410, Technical & Scientific Equipment Systems Inc., Chesterfield, Mo.). The chamber was illuminated with an interior overhead light (50 lx) and was equipped with a stainless steel grid floor connected to a constant-current shock generator. Each mouse was allowed to explore the chamber for 3 min before presentation of a pulsating tone (80 dB, 3600 Hz) which persisted for 30 s. The tone was followed immediately by a mild foot shock (0.7 mA for 0.5 s). The mouse was allowed to explore the chamber for a further 30 s after the shock to study post-shock freezing.
# Freezing was scored using Observer software (Noldus Information Technology, Wagoningen, The Netherlands), by an experimenter who was blinded to the treatment groups. Before each new training session, the chamber was cleaned with 70% ethanol to mask and eliminate odors from the previous mouse.
# Short-term memory for contextual learning was probed 30 min after training by re-exposed the mice to the same fear conditioning chamber for […]. Long-term memory for contextual learning was studied 2 days (48 h) after conditioning by re-exposing the mice to the conditioning chamber. Short-term memory for cued learning was determined 90 min after training by first allowing the mice to explore a modified chamber scented with 5% acetic acid and containing a plastic floor and cardboard walls and then after 3 min, re-presenting the tone (2-Hz pulsating tone, 80 dB, 3600 Hz) for 3 min. Non-specific freezing was measured during the exploration of the novel chamber prior to presenting the tone. Freezing scores to study recall were measured during presentation of the tone. Long-term memory for cued learning was determined by introducing the mice into the modified chamber and presenting the tone 2 days (48 h) after conditioning.
# Elevated plus maze = format: in vivo, mice
# Excerpt: Anxiety levels were studied using an elevated plus maze consisting of an acrylic glass apparatus in the shape of a cross (45 cm long×7 cm wide, with a central region of 7 cm×7 cm). Two opposing arms were enclosed with opaque white plastic walls (28 cm high, closed arms), whereas the other two opposing arms were left open (open arms). […] An observer blinded to treatment group recorded the position of each mouse on the maze using Observer software. The time spent in the center and in the open and closed arms were measured over 5 min. In addition, motor activity was quantified to study locomotion.
# [5] = high-dose experiment: isoflurane + vehicle injection (row isoflurane) or + L-655,708 0.7 mg/kg 30 min before training
# [6] = trained 1 h after isoflurane (1 MAC, 1 h), L-655,708 0.7 mg/kg s.c. or vehicle 10 min before isoflurane
# [7] = trained 24 h after isoflurane, L-655,708 0.7 mg/kg s.c. or vehicle before isoflurane
# [8] = 1 h Iso, vehicle (row isoflurane) or L-655,708
# [9] = 24 h Iso, vehicle (row isoflurane) or L-655,708
structure (smiles),measurement,setting,value
"CCOC(=O)c1ncn2c1[C@@H]1CCCN1C(=O)c1cc(OC)ccc1-2 [L-655,708]",time to self-right after the immobilizing dose of isoflurane,[1],151 ± 27 s
same,effect on MAC of isoflurane (in words),"[1]; mouse, in vivo",did not change the MAC value for isoflurane
same,immobilizing dose (MAC value) of isoflurane,[1],1.33±0.02
same,half-life,"[2]; rat, in vivo",30 min
same,time of peak,"[2]; rat, in vivo",0.25 h
same,brain versus plasma concentrations (in words),[2]; subcutaneous injection,concentrations in the brain mimic those in the plasma
same,memory performance of Gabra5−/− mice (in words),α5GABAA receptors [3],did not affect the memory performance of Gabra5−/− mice
same,"discrimination ratio, short-term memory","α5GABAA receptors [3]; Gabra5−/− mice, L-655,708 0.70 mg/kg i.p. 10 min before isoflurane",0.62±0.05
same,"discrimination ratio, short-term memory","α5GABAA receptors [3]; Gabra5−/− mice, L-655,708 0.70 mg/kg i.p. 10 min before vehicle gas",0.64±0.05
same,effect on isoflurane-induced recognition memory deficit (in words),"α5GABAA receptors [3]; L-655,708 0.35 mg/kg 24 h after isoflurane, 30 min before training","restored normal memory performance in groups that were exposed to isoflurane; also recorded: fully reversed short-term memory deficits; also recorded: completely reversed the deficit in recognition memory; also recorded: reverses memory deficits when administered 24 h after exposure to the anesthetic isoflurane; also recorded: fully reversed by L-655,708"
same,effect on isoflurane-induced recognition memory deficit (in words),"α5GABAA receptors [3]; L-655,708 0.7 mg/kg 24 h after isoflurane, 30 min before training",failed to reverse the memory deficit in isoflurane-treated mice
same,prevention of recognition memory deficit (in words),"α5GABAA receptors [3]; L-655,708 0.7 mg/kg before isoflurane",preferred the novel object
same,"discrimination ratio, short-term memory",α5GABAA receptors [3]; [5],0.54±0.05
same,"discrimination ratio, short-term memory","α5GABAA receptors [3]; isoflurane + L-655,708 0.35 mg/kg i.p. 23.5 h after anesthesia, 30 min before training, n=11",0.68±0.03
same,exploratory behavior during training (in words),"α5GABAA receptors [3]; mouse, in vivo",did not influence the amount of time that mice spent with both objects
same,effect on memory deficit after isoflurane (in words),α5GABAA receptors [4],"completely prevented memory deficits; also recorded: completely reversed the short-term memory deficit for contextual learning; also recorded: prevented the short-term memory deficit to the tone in mice trained 1 h after isoflurane; also recorded: had no effect on auditory recall in mice conditioned 24 h after exposure to isoflurane; also recorded: completely reversed by pretreatment with L-655,708; also recorded: did not reverse the long-term deficit in cued fear conditioning; also recorded: The impairment was prevented by pre-emptive treatment with L-655,708"
same,effect on memory deficit after isoflurane (in words),α5GABAA receptors [4]; listed as L-655-708,had no effect on freezing in the oxygen-treated mice
same,"freezing score to context, short-term memory",α5GABAA receptors [4]; oxygen-treated mice,80.1±6.4%
same,"freezing score to context, short-term memory",α5GABAA receptors [4]; [6],75.5±8.6%
same,"freezing score to context, short-term memory",α5GABAA receptors [4]; [7],81.9±5.6%
same,"freezing score to auditory tone, short-term memory",α5GABAA receptors [4]; trained 1 h after isoflurane,49.1+8.8%
same,"freezing score to auditory tone, long-term memory",α5GABAA receptors [4]; trained 1 h after isoflurane,41.7±7.3%
same,"freezing score to context, long-term memory",α5GABAA receptors [4]; trained 1 h after isoflurane,72.3±4.9%
same,"freezing score to context, long-term memory",α5GABAA receptors [4]; trained 24 h after isoflurane,75.2±8.3%
same,total number of visits to the middle area,Elevated plus maze; [8],17.3±7.0
same,total number of visits to the middle area,Elevated plus maze; 1 h O2,19.5±8.5
same,total number of visits to the middle area,Elevated plus maze; [9],13.6±7.1
FC(F)OC(Cl)C(F)(F)F (stereo not drawn) [isoflurane],time to self-right after the immobilizing dose of isoflurane,[1],153 ± 26 s
same,immobilizing dose (MAC value) of isoflurane,[1],1.33±0.02
same,"effect of the anesthetic on recognition memory, wild-type mice (in words)",α5GABAA receptors [3],failed to recognize the familiar object and exhibited no preference for the novel object
same,memory performance of Gabra5−/− mice (in words),α5GABAA receptors [3],did not cause significant impairment of memory performance in Gabra5−/− mice
same,"effect of the anesthetic on recognition memory, wild-type mice (in words)",α5GABAA receptors [3]; listed as Isoflurane,demonstrated normal working memory
same,time spent exploring both objects during training,α5GABAA receptors [3]; 72 h after isoflurane,46.65 ± 6.57 s
same,"discrimination ratio, short-term memory","α5GABAA receptors [3]; 72 h after isoflurane, n=10",0.60±0.04
same,"discrimination ratio, short-term memory","α5GABAA receptors [3]; Gabra5−/− mice, 24 h after isoflurane",0.62±0.05
same,time by which short-term memory deficits resolved,α5GABAA receptors [3]; after isoflurane 1.3% 1 h,≤ 72 h
same,"discrimination ratio, short-term memory",α5GABAA receptors [3]; [5],0.54±0.04
same,"discrimination ratio, short-term memory","α5GABAA receptors [3]; prevention experiment, wild-type, isoflurane + vehicle injection, n=11",0.53±0.05
same,time spent exploring sample objects during training,"α5GABAA receptors [3]; short-term memory experiment, 24 h after isoflurane",62.3 ± 9.44 s
same,"discrimination ratio, working memory","α5GABAA receptors [3]; tested 1 min after training, 24 h after isoflurane 1.3% 1 h, n=10",0.67±0.04
same,"discrimination ratio, short-term memory","α5GABAA receptors [3]; tested 1 h after training, 24 h after isoflurane, vehicle injection, wild-type, n=31",0.51±0.03
same,time spent exploring both sample objects during training,"α5GABAA receptors [3]; working memory experiment, 24 h after isoflurane",49.28 ± 9.60 s
same,"mean freezing score, short-term contextual fear conditioning","α5GABAA receptors [4]; independent cohort of 14 mice, 24 h after isoflurane",32.8%
same,"freezing score to context, short-term memory",α5GABAA receptors [4]; [6],54.6±5.9%
same,"freezing score to context, short-term memory",α5GABAA receptors [4]; [7],51.6±8.0%
same,"freezing score to auditory tone, short-term memory",α5GABAA receptors [4]; trained 1 h after isoflurane,35.7±6.43%
same,"freezing score to auditory tone, short-term memory",α5GABAA receptors [4]; trained 24 h after isoflurane,49.1+8.8%
same,"freezing score to auditory tone, long-term memory",α5GABAA receptors [4]; trained 1 h after isoflurane,21.8±23.1%
same,"freezing score to context, long-term memory",α5GABAA receptors [4]; trained 1 h after isoflurane,36.4±26.9%
same,"freezing score to auditory tone, long-term memory",α5GABAA receptors [4]; trained 24 h after isoflurane,41.2±31.2%
same,"freezing score to context, long-term memory",α5GABAA receptors [4]; trained 24 h after isoflurane,48.9±8.6%
same,total number of visits to the middle area,Elevated plus maze; [8],19.9±4.6
same,total number of visits to the middle area,Elevated plus maze; [9],18.1±5.3
same,anxiety in the elevated plus maze (in words),"Elevated plus maze; mouse, in vivo","neither isoflurane, nor L-655,708 had any effect on anxiety on their own"
